What follows are molecules tested on GT-1a of NS5A Replicon (assay: HCV double reporter gene (Renilla luciferase) replicon assay, GT-1a). Conditions: GT-1a replicon; class symbols; read-out: EC50 For GT-1a of NS5A Replicon.
Format: cell-based, Hepatitis C virus (HCV)
Experimental: Antiviral Assay for Inhibition Activity (EC50):
The study is completed by a new constructed double reporter genes replicon assay system, the capacity of viral replicon in infected cell is determined by detecting the reporter gene Renilla luciferase. The relationship of reporter genes, HCV RNA replicon and viral proteins is well linear. 8 gradient concentrations for 2-fold dilution, 3 wells, 3 times repetition and 1 or 2 control drugs are set to finally determine EC50 of compound.
THF was distilled from sodium metal and benzophenone. DCM, pentane and hexane were distilled form calcium hydride. Special raw material and intermediate in the invention were ordered by contract synthesis from Zannan SciTech Co., Let in China, others reagents were purchased from Shanghai reagent company, Aldrich, Acros etc. As intermediates or products during the synthesis is not required for the reaction and other tests the next step, the synthesis is repeated until a sufficient number of times. The invention of the prepared compounds of […] (HCV NS5A) inhibitory activity test was performed by CRO service units such as WuXi AppTec etc.
Work on CNC(=O)NC(C(=O)N1CC=C[C@H]1c1nc(-c2ccc(-c3ccc(-c4c[nH]c(C5CCCN5C(=O)[C@@H](NC(=O)NC)C(C)C)n4)cc3)cc2)c[nH]1)C(C)C (stereo partly shown) [Compound 6ch] yielded an EC50 of 0.001 to 0.999 nM.
For COC(=O)NC(C(=O)N1CC=C[C@H]1c1ncc(-c2ccc(-c3ccc(-c4cnc([C@@H]5CCCN5C(=O)[C@@H](NC(=O)OC)C(C)C)[nH]4)cc3)cc2)[nH]1)C1CCCCC1 (stereo partly shown) [Compound 6di], the EC50 was 0.001 to 0.999 nM.
COC(=O)NC(C(=O)N1CC=C[C@H]1c1ncc(-c2ccc(-c3ccc(-c4cnc([C@@H]5CCCN5C(=O)[C@@H](NC(=O)OC)C(C)C)[nH]4)cc3)cc2)[nH]1)C1CCCCC1 (stereo partly shown) [Compound 6dj] was tested, and the EC50 was 1 to 49.9 nM.

Same assay, conditions: Hepatitis C virus, GT1A, GT-1a replicon; class symbols; read-out: EC50 For GT-1a of NS5A Replicon
For COC(=O)N[C@H](C(=O)N1CC(OC(=O)N2Cc3cc4c(cc3C2)OCO4)CC1c1nc(-c2ccc3c(ccc4cc(-c5c[nH]c([C@@H]6CCCN6C(=O)[C@@H](NC(=O)OC)C(C)C)n5)ccc43)c2)c[nH]1)C(C)C (stereo partly shown) [Compound 6bt], the EC50 was 0.001 to 0.999 nM.
With COC(=O)N[C@H](C(=O)N1CC(OC(=O)N2Cc3cc4c(cc3C2)OCO4)CC1c1nc(-c2ccc(-c3cccc4c(-c5c[nH]c([C@@H]6CCCN6C(=O)[C@@H](NC(=O)OC)C(C)C)n5)cccc34)cc2)c[nH]1)C(C)C (stereo partly shown) [Compound 6bu] the EC50 was 0.001 to 0.999 nM.
Work on COC(=O)N[C@H](C(=O)N1CN(C(=O)N2Cc3cc4c(cc3C2)OCO4)C[C@H]1c1ncc(-c2ccc(-c3cccc4c(-c5cnc([C@@H]6CCCN6C(=O)[C@@H](NC(=O)OC)C(C)C)[nH]5)cccc34)cc2)[nH]1)C(C)C [Compound 6bv] yielded an EC50 of over 50 nM.
With CC(C)(C)OC(=O)N[C@H](C(=O)N1CCC[C@H]1c1nc(-c2ccc(-c3ccc(-c4cnc([C@@H]5C[C@@H](OC(=O)N6Cc7ccc8c(c7C6)OCO8)CN5C(=O)[C@@H](NC(=O)OC(C)(C)C)C(C)(C)C)[nH]4)cc3)cc2)c[nH]1)C(C)(C)C [Compound 6c] the EC50 was over 50 nM.
For COC(=O)N[C@@H](C(=O)N1CC=CC1c1nc(-c2ccc(-c3ccc(-c4c[nH]c(C5C=CCN5C(=O)[C@H](NC(=O)OC)c5ccccc5)n4)cc3)cc2)c[nH]1)c1ccccc1 (stereo partly shown) [Compound 6ca], the EC50 was 0.001 to 0.999 nM.
COC(=O)N[C@H](C(=O)N1CCCC1c1ncc(-c2ccc3c(c2)cc2n3C(c3ccccc3)Oc3cc(-c4cnc([C@@H]5C=CCN5C(=O)[C@@H](NC(=O)OC)C(C)C)[nH]4)ccc3-2)[nH]1)C(C)C (stereo partly shown) [Compound 6cd] was tested, and the EC50 was over 50 nM.
CN(C)C(=O)N[C@@H](C(=O)N1CC=CC1c1nc(-c2ccc(-c3ccc(-c4c[nH]c(C5CCCN5C(=O)[C@H](NC(=O)N(C)C)c5ccccc5)n4)cc3)cc2)c[nH]1)c1ccccc1 (stereo partly shown) [Compound 6ce] gave an EC50 of 0.001 to 0.999 nM.
In the case of CNC(=O)N[C@@H](C(=O)N1CC=CC1c1nc(-c2ccc(-c3ccc(-c4c[nH]c(C5CCCN5C(=O)[C@H](NC(=O)NC)c5ccccc5)n4)cc3)cc2)c[nH]1)c1ccccc1 (stereo partly shown) [Compound 6cf], the EC50 is reported as 0.001 to 0.999 nM.
CC(C)C(NC(=O)N(C)C)C(=O)N1CC=C[C@H]1c1nc(-c2ccc(-c3ccc(-c4c[nH]c(C5CCCN5C(=O)[C@@H](NC(=O)N(C)C)C(C)C)n4)cc3)cc2)c[nH]1 (stereo partly shown) [Compound 6cg] showed an EC50 of 0.001 to 0.999 nM.
COC(=O)N[C@H](C(=O)N1CCCC1c1nc(-c2ccc(-c3ccc(-c4c[nH]c([C@@H]5C=CCN5C(=O)C(NC(=O)N(C)C)C(C)C)n4)cc3)cc2)c[nH]1)C(C)C (stereo partly shown) [Compound 6ci] gave an EC50 of 0.001 to 0.999 nM.
In the case of CNC(=O)NC(C(=O)N1CC=C[C@H]1c1nc(-c2ccc(-c3ccc(-c4c[nH]c(C5CCCN5C(=O)[C@@H](NC(=O)OC)C(C)C)n4)cc3)cc2)c[nH]1)C(C)C (stereo partly shown) [Compound 6cj], the EC50 is reported as 0.001 to 0.999 nM.
With COC(=O)N[C@H](C(=O)N1CCC[C@H]1c1ncc(-c2ccc(-c3ccc(-c4cnc([C@@H]5CN(C(=O)N6Cc7ccc(OC)c(OC)c7C6)CN5C(=O)[C@@H](NC(=O)OC)C(C)C)[nH]4)cc3)cc2)[nH]1)C(C)C [Compound 6cq] the EC50 was 1 to 49.9 nM.
With COC(=O)N[C@H](C(=O)N1CC=C[C@H]1c1ncc(-c2ccc(-c3ccc(-c4cnc([C@@H]5CNCN5C(=O)[C@@H](NC(=O)OC)C(C)C)[nH]4)cc3)cc2)[nH]1)C(C)C [Compound 6cv] the EC50 was 0.001 to 0.999 nM.
For COC(=O)N[C@H](C(=O)N1CC=C[C@H]1c1ncc(-c2ccc(-c3ccc(-c4cnc([C@@H]5CN(C(=O)OC(C)(C)C)CN5C(=O)[C@@H](NC(=O)OC)C5CCCCC5)[nH]4)cc3)cc2)[nH]1)C(C)C [Compound 6cy], the EC50 was 0.001 to 0.999 nM.
COC(=O)N[C@H](C(=O)N1CCC[C@H]1c1nc(-c2ccc(-c3ccc(-c4cnc([C@@H]5C[C@@H](OC(=O)N6Cc7ccc8c(c7C6)OCO8)CN5C(=O)[C@@H](NC(=O)OC(C)(C)C)C(C)C)[nH]4)cc3)cc2)c[nH]1)C(C)C [Compound 6d] was tested, and the EC50 was 1 to 49.9 nM.
Work on COC(=O)N[C@H](C(=O)N1CC=C[C@H]1c1ncc(-c2ccc(-c3ccc(-c4cnc([C@@H]5CN(S(=O)(=O)C6CC6)CN5C(=O)[C@@H](NC(=O)OC)C(C)C)[nH]4)cc3)cc2)[nH]1)C(C)C [Compound 6da] yielded an EC50 of 0.001 to 0.999 nM.
Molecule COC(=O)N[C@H](C(=O)N1CC=C[C@H]1c1ncc(-c2ccc(-c3ccc(-c4cnc([C@@H]5CN(C(=O)OC)CN5C(=O)[C@@H](NC(=O)OC)C(C)C)[nH]4)cc3)cc2)[nH]1)C(C)C [Compound 6db] has an EC50 of 0.001 to 0.999 nM.
For COC(=O)N[C@H](C(=O)N1CCC[C@H]1c1ncc(-c2ccc(-c3ccc(-c4cnc([C@@H]5CCCN5C(=O)[C@@H](NC(=O)N(C)C)C(C)C)[nH]4)cc3)cc2)[nH]1)C(C)C [Compound 6de], the EC50 was 0.001 to 0.999 nM.
Work on COC(=O)NC(C(=O)N1CC=C[C@H]1c1ncc(-c2ccc(-c3ccc(-c4cnc([C@@H]5CCCN5C(=O)[C@@H](NC(=O)OC)C(C)C)[nH]4)cc3)cc2)[nH]1)C1CCCC1 (stereo partly shown) [Compound 6dh] yielded an EC50 of 0.001 to 0.999 nM.
COC(=O)N[C@H](C(=O)N1CC=C[C@H]1c1ncc(-c2ccc(-c3ccc(-c4cnc([C@@H]5CCCN5C(=O)[C@@H](NC(=O)OC)C5CCCCC5)[nH]4)cc3)cc2)[nH]1)C1CCCCC1 [Compound 6dk] showed an EC50 of 0.001 to 0.999 nM.
With COC(=O)N[C@H](C(=O)N1CC=C[C@H]1c1ncc(-c2ccc(-c3ccc(-c4cnc([C@@H]5C=CCN5C(=O)[C@@H](NC(=O)OC)C5CCCCC5)[nH]4)cc3)cc2)[nH]1)C1CCCCC1 [Compound 6dm] the EC50 was 0.001 to 0.999 nM.
In the case of COC(=O)N[C@H](C(=O)N1CC=C[C@H]1c1ncc(-c2ccc(-c3ccc(-c4cnc([C@@H]5CCCN5C(=O)[C@@H](NC(=O)OC)C5CCCCC5)[nH]4)cc3)cc2)[nH]1)C1CCCC1 [Compound 6dn], the EC50 is reported as 0.001 to 0.999 nM.
In the case of COC(=O)N[C@H](C(=O)N1CC=C[C@H]1c1ncc(-c2ccc(-c3ccc(-c4cnc([C@@H]5CCCN5C(=O)[C@@H](NC(=O)OC)C5CCCC5)[nH]4)cc3)cc2)[nH]1)C1CCCC1 [Compound 6dp], the EC50 is reported as 0.001 to 0.999 nM.
In the case of COC(=O)N[C@H](C(=O)N1CCC(O)[C@H]1c1ncc(-c2ccc(-c3ccc(-c4cnc([C@@H]5C=CCN5C(=O)[C@@H](NC(=O)OC)C(C)C)[nH]4)cc3)cc2)[nH]1)C(C)C (stereo partly shown) [Compound 6dr], the EC50 is reported as 0.001 to 0.999 nM.
COC(=O)N[C@H](C(=O)N1CC=C[C@H]1c1nc(-c2ccc(-c3ccc(-c4cnc([C@@H]5CC6(CN5C(=O)[C@@H](NC(=O)OC)C(C)C)OCCO6)[nH]4)cc3)cc2)c[nH]1)C(C)C [Compound 6dt] was tested, and the EC50 was 0.001 to 0.999 nM.
Work on COC(=O)N[C@H](C(=O)N1CC=C[C@H]1c1nc(-c2ccc(-c3ccc(-c4cnc([C@@H]5CC6(CN5C(=O)[C@H](NC(=O)OC)c5ccccc5)OCCO6)[nH]4)cc3)cc2)c[nH]1)C(C)C [Compound 6du] yielded an EC50 of 0.001 to 0.999 nM.
In the case of COC(=O)N[C@@H](C(=O)N1CC=C[C@H]1c1nc(-c2ccc(-c3ccc(-c4cnc([C@@H]5CC6(CN5C(=O)[C@H](NC(=O)OC)c5ccccc5)OCCO6)[nH]4)cc3)cc2)c[nH]1)c1ccccc1 [Compound 6dv], the EC50 is reported as 0.001 to 0.999 nM.
COC(=O)N[C@H](C(=O)N1CC2(C[C@H]1c1ncc(-c3ccc(-c4ccc(-c5c[nH]c([C@@H]6C=CCN6C(=O)[C@H](NC(=O)OC)c6ccccc6)n5)cc4)cc3)[nH]1)OCCO2)C(C)C [Compound 6dw] gave an EC50 of 0.001 to 0.999 nM.
COC(=O)N[C@@H](C(=O)N1CC=C[C@H]1c1ncc(-c2ccc(-c3ccc(-c4c[nH]c([C@@H]5CCCN5C(=O)[C@H](NC(=O)OC)c5ccccc5)n4)cc3)cc2)[nH]1)c1ccccc1 [Compound 6dz] showed an EC50 of 0.001 to 0.999 nM.
Molecule COC(=O)N[C@H](C(=O)N1CN(C(=O)N2Cc3cc4c(cc3C2)OCO4)CC1c1nc(-c2cc3sc(-c4ccc(-c5c[nH]c([C@@H]6CCCN6C(=O)[C@@H](NC(=O)OC)C(C)C)n5)cc4)cc3s2)c[nH]1)C(C)C (stereo partly shown) [Compound 6fa] has an EC50 of 0.001 to 0.999 nM.
COC(=O)NC(C(=O)N1CCC[C@H]1c1nc(-c2cc3sc(-c4ccc(-c5c[nH]c(C6CN(C(=O)N7Cc8cc9c(cc8C7)OCO9)CN6C(=O)[C@@H](NC(=O)OC)C(C)C)n5)cc4)cc3s2)c[nH]1)c1ccccc1 (stereo partly shown) [Compound 6fb] gave an EC50 of 0.001 to 0.999 nM.
Molecule COC(=O)N[C@@H](C(=O)N1CC=CC1c1nc(-c2ccc(-c3cc4sc(-c5c[nH]c(C6C=CCN6C(=O)[C@H](NC(=O)OC)c6ccccc6)n5)cc4s3)cc2)c[nH]1)c1ccccc1 (stereo partly shown) [Compound 6fe] has an EC50 of 0.001 to 0.999 nM.

Same assay, conditions: Hepatitis C virus, GT1A, read-out: EC50 For GT-1a of NS5A Replicon
COC(=O)N[C@H](C(=O)N1C[C@H](OC(=O)N2Cc3ccc4c(c3C2)OCO4)C[C@H]1c1nc(-c2ccc(-c3ccc(-c4cnc([C@@H]5C[C@@H](OC(=O)N6Cc7ccc8c(c7C6)OCO8)CN5C(=O)[C@@H](NC(=O)OC)C(C)C)[nH]4)cc3)cc2)c[nH]1)C(C)C [Compound 6e] gave an EC50 of over 50 nM.
In the case of CC(C)[C@H](NC(=O)OC(C)(C)C)C(=O)N1C[C@H](OC(=O)N2Cc3ccc4c(c3C2)OCO4)CC1c1ncc(-c2ccc(-c3ccc(-c4c[nH]c([C@@H]5C[C@@H](OC(=O)N6Cc7ccc8c(c7C6)OCO8)CN5C(=O)[C@@H](NC(=O)OC(C)(C)C)C(C)C)n4)cc3)cc2)[nH]1 (stereo partly shown) [Compound 6f], the EC50 is reported as over 50 nM.

From patent publication US9820972B2, “Antiviral compounds highly effective as HCV-NS5A inhibitor” (priority 2013, dated 2017)
